The values that follow come from PMC5641445 (Journal of medicinal chemistry, 2017).

The target in one data set is T1, bovine GRK2 (S670A) (Bos taurus, UniProt P21146, S670A).
T1 sequence (P21146 1-689 S670A): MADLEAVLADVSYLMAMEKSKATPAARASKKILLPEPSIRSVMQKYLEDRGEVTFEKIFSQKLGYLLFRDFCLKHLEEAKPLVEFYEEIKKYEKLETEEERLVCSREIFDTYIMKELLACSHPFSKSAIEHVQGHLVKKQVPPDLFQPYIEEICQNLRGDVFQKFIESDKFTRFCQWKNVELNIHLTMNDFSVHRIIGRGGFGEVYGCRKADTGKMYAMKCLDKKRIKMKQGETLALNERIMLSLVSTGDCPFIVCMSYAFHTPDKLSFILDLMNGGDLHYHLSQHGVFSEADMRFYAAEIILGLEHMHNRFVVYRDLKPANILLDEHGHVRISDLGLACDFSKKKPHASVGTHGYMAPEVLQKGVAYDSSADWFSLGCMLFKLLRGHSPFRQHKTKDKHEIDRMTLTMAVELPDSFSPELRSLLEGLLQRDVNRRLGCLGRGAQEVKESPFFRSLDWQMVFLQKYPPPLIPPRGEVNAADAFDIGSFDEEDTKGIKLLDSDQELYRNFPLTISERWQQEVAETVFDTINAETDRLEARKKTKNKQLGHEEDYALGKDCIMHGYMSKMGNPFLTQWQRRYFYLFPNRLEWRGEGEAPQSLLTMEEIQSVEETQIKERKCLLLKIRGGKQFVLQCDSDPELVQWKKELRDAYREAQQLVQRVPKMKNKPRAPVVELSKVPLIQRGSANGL
Kind of data set: GRK2 kinase inhibition.

The target of data set [1] is mouse PKA catalytic subunits (Mus musculus, UniProt P05132). Kind of data set: PKA inhibition, ADP-Glo Kinase Assay.
The target in the next data set is bovine GRK5 (Bos taurus, UniProt P43249). Kind of data set: GRK5 kinase inhibition.
bovine GRK5, sequence (P43249 whole entry): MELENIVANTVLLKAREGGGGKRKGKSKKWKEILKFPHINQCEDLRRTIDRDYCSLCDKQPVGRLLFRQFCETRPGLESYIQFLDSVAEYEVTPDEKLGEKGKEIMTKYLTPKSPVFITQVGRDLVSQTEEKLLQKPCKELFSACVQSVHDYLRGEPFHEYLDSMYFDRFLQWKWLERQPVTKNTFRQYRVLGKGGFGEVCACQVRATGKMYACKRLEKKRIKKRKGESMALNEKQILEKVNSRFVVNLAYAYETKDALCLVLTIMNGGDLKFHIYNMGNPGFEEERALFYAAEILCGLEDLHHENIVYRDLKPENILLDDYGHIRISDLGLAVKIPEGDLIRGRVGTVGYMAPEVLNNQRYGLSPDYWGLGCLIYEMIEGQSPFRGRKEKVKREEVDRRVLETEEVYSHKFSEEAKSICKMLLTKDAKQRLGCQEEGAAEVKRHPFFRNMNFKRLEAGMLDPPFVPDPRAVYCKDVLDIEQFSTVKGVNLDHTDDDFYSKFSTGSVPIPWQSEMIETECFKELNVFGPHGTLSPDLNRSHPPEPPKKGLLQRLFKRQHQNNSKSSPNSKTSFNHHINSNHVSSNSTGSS
Data set [2] concerns mouse cardiomyocytes. The conditions noted are these: cited from earlier work.
The nature of data set [3]: Metabolic stability in mouse liver microsomes. The format is in vitro ADME. The following applies: polar carboxamides on the paroxetine template. On the technique in general: Liver microsomes are vesicles of endoplasmic reticulum, rich in cytochrome P450 enzymes.
Data set [4] concerns mouse cardiomyocytes. The data set is classed as cell-based.
For a further data set, the system named is GRK2. The conditions noted are these: read-out: GRK2 IC50; Takeda compounds; cited from earlier work.
A short description of data set [5]: Abbreviated pharmacokinetic study in mice after IP administration. The following applies: for concentration at 30 min / concentration at 2 h / concentration at 4 h / concentration at 7 h: female, CD-1, mouse, plasma, ip, 10 mg/kg.

SMILES strings stand for the structures. Structures can show the parent of a compound that is named as a salt.

As a reminder, the IC50 is the concentration that gives 50% inhibition.

For `Cn1nccc1CNC(=O)c1cc([C@@H]2CCNC[C@H]2COc2ccc3c(c2)OCO3)ccc1F` [14aw, 5-((3S,4R)-3-((benzo[d][1,3]dioxol-5-yloxy)methyl)piperidin-4-yl)-2-fluoro-N-((1-methyl-1H-pyrazol-5-yl)methyl)benzamide], the “decrease in GRK2 potency relative to 14as” value on bovine GRK2 (S670A) is 70 fold. Further, the IC50 in data set [1] is more than 100 µM.

In the case of `Cc1cc(CNC(=O)c2cc([C@@H]3CCNC[C@H]3COc3ccc4c(c3)OCO4)ccc2F)n[nH]1` [14au, 5-((3S,4R)-3-((benzo[d][1,3]dioxol-5-yloxy)methyl)piperidin-4-yl)-2-fluoro-N-((5-methyl-1H-pyrazol-3-yl)methyl)benzamide], in data set [1], the half-maximal inhibitory concentration (IC50) was more than 100 µM. For the same compound, on bovine GRK5, the “selectivity for GRK2 over GRK5” value is more than 100 fold.

Regarding `Cn1ccc(CNC(=O)c2cc([C@@H]3CCNC[C@H]3COc3ccc4c(c3)OCO4)ccc2F)n1` [14av, 5-((3S,4R)-3-((benzo[d][1,3]dioxol-5-yloxy)methyl)piperidin-4-yl)-2-fluoro-N-((1-methyl-1H-pyrazol-3-yl)methyl)benzamide], the “decrease in GRK2 potency relative to 14as” value on bovine GRK2 (S670A) amounted to 40 fold. This compound also returned an IC50 in data set [1] of more than 100 µM.

As for `COc1cccc(OC)c1CNC(=O)c1cc(C2NC(=O)NC(C)=C2C(=O)Nc2ccc3[nH]ncc3c2)ccc1F` (stereo not drawn) [compound 4], the “lower concentration than paroxetine enhancing myocardial contractility” value in the data set with mouse cardiomyocytes [2] is on record as 20 fold.

As for `O=C(Cc1cc([C@@H]2CCNC[C@H]2COc2ccc3c(c2)OCO3)ccc1F)NCCc1cn[nH]c1` [14bd, N-(2-(1H-pyrazol-4-yl)ethyl)-2-(5-((3S,4R)-3-((benzo[d][1,3]dioxol-5-yloxy)methyl)piperidin-4-yl)-2-fluorophenyl)acetamide], the “increase in GRK2 potency relative to paroxetine” value at bovine GRK2 (S670A) came out at 2 fold. In data set [1], this compound displayed an IC50 of more than 100 µM.

Consider `O=C(NCCc1cc[nH]n1)c1cc([C@@H]2CCNC[C@H]2COc2ccc3c(c2)OCO3)ccc1F` [14at, N-(2-(1H-pyrazol-3-yl)ethyl)-5-((3S,4R)-3-((benzo[d][1,3]dioxol-5-yloxy)methyl)piperidin-4-yl)-2-fluorobenzamide], for which, on bovine GRK2 (S670A), the “decrease in GRK2 potency relative to 14as” value is 26 fold. Moreover, the IC50 in data set [1] is more than 100 µM.

Regarding `O=C(NCc1cn[nH]c1)c1cc([C@@H]2CCNC[C@H]2COc2ccc3c(c2)OCO3)ccc1F` [14ax, N-((1H-pyrazol-4-yl)methyl)-5-((3S,4R)-3-((benzo[d][1,3]dioxol-5-yloxy)methyl)piperidin-4-yl)-2-fluorobenzamide], the “decrease in GRK2 potency relative to 14as” value on bovine GRK2 (S670A) is reported as 10 fold. This compound also yielded a concentration for half-maximal inhibition (IC50) in data set [1] of more than 100 µM.

For the compound `CC1=C(C(=O)Nc2ccc3[nH]ncc3c2)C(c2ccc(F)cc2)NC(=O)N1` (stereo not drawn) [compound 3], the “minimum dose needed to produce a significant contractility response” value in the data set on mouse cardiomyocytes [2] is 1 µM.

With `O=C(NCc1ccccn1)c1cc([C@@H]2CCNC[C@H]2COc2ccc3c(c2)OCO3)ccc1F` [14ak, 5-((3S,4R)-3-((benzo[d][1,3]dioxol-5-yloxy)methyl)piperidin-4-yl)-2-fluoro-N-(pyridin-2-ylmethyl)benzamide hydrochloride], in data set [3], the “metabolic stability in MLM, in words” value is “substantial metabolic instability”. Moreover, the “increase in contractility, in words” value in the data set on mouse cardiomyocytes [4] (at 0.5 μM or 1 μM) was “did not show a significant increase in contractility”. The compound further displayed a 50% inhibitory concentration (IC50) in data set [1] of more than 100 µM. The “increase in GRK5 potency” value on bovine GRK5 (relative to paroxetine) is 5 fold.

With `Cn1c(CNc2cccc(C(=O)NCc3ccccc3C(F)(F)F)c2)nnc1-c1ccncc1` [compound 2, reference compound], the half-inhibitory concentration (IC50) in the data set with GRK2 was 30 nM. In data set [5] (CD-1 mice, IP 10 mg/kg, estimated from four time points), the half-life in vivo result is “too low to quantify”. In data set [5], the concentration at 30 min was 1830 nM, the concentration at 2 h was 32 nM, the concentration at 4 h came out at 5 nM and the concentration at 7 h stood at 6 nM.

Regarding `O=C(NCc1ccn[nH]1)c1cc([C@@H]2CCNC[C@H]2COc2ccc3c(c2)OCO3)ccc1F` [14as, N-((1H-pyrazol-5-yl)methyl)-5-((3S,4R)-3-((benzo[d][1,3]dioxol-5-yloxy)methyl)piperidin-4-yl)-2-fluorobenzamide], the “metabolic stability in MLM, in words” value in data set [3] is reported as “substantial metabolic instability”. Further, the “improvement in contractility efficacy over compound 4” value with mouse cardiomyocytes [4] was 5 fold. The “concentration giving improved contractility” value with mouse cardiomyocytes [4] (isoproterenol-stimulated) worked out at 100 nM. In data set [1], the IC50 is more than 100 µM. In data set [5], the concentration at 30 min is 2710 nM, the concentration at 2 h came to 1440 nM, the concentration at 4 h worked out at 270 nM and the concentration at 7 h is 43 nM. The “time with plasma concentration higher than GRK2 IC50 ([…] nM)” value in data set [5] (mice, single IP administration 10 mg/kg) is “over seven”.
